Data: patent US8242203B2, “Covalently attached nile blue derivatives for optical sensors” (priority 2005, dated 2012)
Where two headings read alike, the source gives them in different places.

What was measured:
[1] = comparison value, cited from earlier work
[2] = Leaching of chromoionophore from ISE membrane during conditioning and measurement; assay type: physicochemical; conditions: conditioning in contact with buffer and measurements
Experimental: ISE Membrane Preparation and Measurements. ISE membranes were prepared by dissolving chromoionophore (10 mmol/kg), NaTFPB (2 mmol/kg), PVC and plasticizer (DOS or NPOE) to give a total cocktail mass of 140 mg in 1.5 mL of THF. The cocktail of the membrane with grafted chromoionophore contained 2 mmol/kg NaTFPB, 10 wt % MMA-DMA polymer with grafted indicators, PVC and plasticizer (DOS or NPOE). Cocktails were poured into glass rings (2.2 cm i.d.) affixed onto glass microscope slides.
The solvent was evaporated overnight to give a transparent membrane. The parent membranes were then conditioned for at least 12 hours in pH buffered solutions. For pH titrations, buffer solutions are 10 mM citric acid and 10 mM boric acid with the indicated concentrations of NaCl (either 10 mM or 0.1 mM) adjusted to pH 1.5 by 1 M standard HCl, or 10 mM phosphate buffer solution with NaCl as background. The solution was titrated with a 0.1 M standard NaOH solution and a pH electrode was used to monitor the sample pH. All experimental results given are the average of at least three electrodes, with calculated standard deviations.
The first polymerizable chromoionophore NB1 is a derivative of the highly basic oxazine-dye molecule Nile Blue attached to a acryloyloxybenzoyl group. The pH responses of NB1 based ion selective electrode (“ISE”) membranes were investigated first. […]

Structure (SMILES)	pKa ([1]; PVC-DOS)	pKa ([1]; PVC-NPOE)	leaching of the dye from the ISE membrane [2]
CCCCCCCCCCCCCCCCCC(=O)N=c1cc2oc3cc(N(CC)CC)ccc3nc-2c2ccccc12 [ETH 5294, 9-(diethylamino)-5-octadecanoylimino-5H-benzo[a]phenoxazine]	11.4	14.8	–
C=CC(=O)Oc1ccc(C(=O)/N=c2/cc3oc4cc(N(CC)CC)ccc4nc-3c3ccccc23)cc1 [NB1]	–	–	found to leach from the membrane
